From patent US8580493B2, “Screening for compounds that modulate GPR3-mediated beta-arrestin signaling and amyloid beta peptide generation” (VIB VZW, priority 2009, dated 2013)

Tests used:
[1] = test system: Aβ generation in CHO/β-arrestin 2/GPR3 cells; assay: Aβ1-40 and Aβ1-42 ELISA of culture supernatants after siRNA transfection of CHO/β-arrestin 2/GPR3 cells; type: cell-based, Chinese hamster; conditions: 20 μg siRNA, FIG. 6
Excerpt: Chemically synthesized, double-stranded siRNAs targeting β-arrestin 1 or 2 with 19-nucleotide duplex RNA and 2-nucleotide 3′-dTdT overhangs containing fluorescent tags to determine transfection efficiency were purchased from Qiagen. The sequences of the siRNA have been previously described (Aim et al. 2003; 2004; see also Table 1). As a control, non-silencing siRNA with the sequence 5′-[…]-3′ (SEQ ID NO:10) was used in the experiment. The PathHunter™ Chinese hamster ovary (CHO) GPR3 β-arrestin 2 cell line, which stably expresses GPR3 and β-arrestin 2, was transfected with 20 μg of siRNA using the GeneSilencer Transfection reagent (Genlantis) as previously described by Aim et al. (2003). Forty-eight hours following transfection, cells were divided into six-well and 96-well plates for further experiments. Twenty-four hours after plating, cells were placed in serum-free medium for an additional 24 hours. The PathHunter™ β-arrestin assay was performed on the cells in the 96-well plate to determine the extent of β-arrestin 2 recruitment to GPR3 following a reduction in the expression of β-arrestin 1 or β-arrestin 2.
Culture supernatant samples were collected from cells seeded in the six-well plates to determine the effect of a reduction in β-arrestin 2 recruitment to GPR3 on Aβ1-40 and Aβ1-42 generation. […]

[2] = test system: Aβ generation in HEK293 APP695 cells; assay: Aβ1-40 and Aβ1-42 ELISA of culture supernatants after siRNA transfection of HEK293 APP695 cells; type: cell-based; conditions: HEK293 APP695 cells co-transfected with human GPR3 plasmid, 20 μg siRNA
Excerpt: FIGS. 1A and 1B: Effect of siRNA-mediated β-arrestin depletion on Aβ1-40 (FIG. 1A) and Aβ1-42 (FIG. 1B) generation in HEK293 APP695 cells. Cells were transfected with pcDNA or GPR3, and siRNA targeting β-arrestin 1, 2, both, or a non-silencing (control) RNA duplex prior to measurement of Aβ1-40 (FIG. 1A) and Aβ1-42 (FIG. 1B) secretion in cell culture supernatants by ELISA. The results are expressed as the mean percentage ±SD of three independent experiments performed in duplicate relative to non-silencing siRNA (control).
Chemically synthesized, double-stranded siRNAs targeting β-arrestin 1 or 2 with 19-nucleotide duplex RNA and 2-nucleotide 3′-dTdT overhangs containing fluorescent tags to determine transfection efficiency were purchased from Qiagen. The sequences of the siRNA have been previously described (Ahn et al. 2003; 2004; see also Table 1). As a control, non-silencing siRNA with the sequence 5′-[…]-3′ (SEQ ID NO:10) was used in the experiment. […]
To directly determine the requirement of β-arrestin 1 or 2 for constitutive and GPR3-mediated Aβ generation, Aβ levels were measured in HEK293 APP695 cells following transfection with siRNA that specifically targets either β-arrestin 1 or 2 or both. β-arrestin 2 siRNA reduced constitutive Aβ1-40 and Aβ1-42 generation. […]

[3] = test system: β-arrestin 2 recruitment to GPR3; assay: PathHunter β-arrestin assay after siRNA transfection of the CHO GPR3 β-arrestin 2 cell line; type: cell-based, Chinese hamster; conditions: PathHunter CHO GPR3 β-arrestin 2 cells, 20 μg siRNA, FIG. 5
Excerpt: A modified β-galactosidase complementation assay, referred to as PathHunter™ technology, is another preferred assay method (Olson and Eglen 2007). The principle of the assay is the detection of an interaction between GPR3 and β-arrestin following receptor activation. The assay is unique because it provides a direct measure of β-arrestin binding, whereas imaging assays detect the movement of β-arrestin. […] The assay makes use of a low affinity peptide derived from the amino-terminus of Escherichia coli β-galactosidase, which is tethered to the carboxy-terminus of GPR3 (ProLink™ tag), and a w-deletion mutant of β-galactosidase, which is fused to β-arrestin (enzyme acceptor or EA). The use of the low-affinity ProLink™ peptide ensures that the enzyme fragment complementation (EFC) reaction is driven by the receptor-stimulated, reversible interaction of GPR3 with β-arrestin and not by β-galactosidase complementation in the absence of receptor stimulation. Thus, complementation between β-arrestin and GPR3 results in the formation of a functional enzyme that is capable of hydrolyzing a substrate and generating a chemiluminescent signal. Given the finding that β-arrestin modulates Aβ release, the PathHunter™ β-arrestin assay would facilitate the identification of potential allosteric modulators of Aβ generation. […]

5′-AAAGCCUUCUGCGCGGAGAAU-3′ [β-arrestin 1 siRNA]
Aβ1-40 generation [1]: did not affect
Aβ1-42 generation [1]: modestly stimulated
Aβ1-40 generation with GPR3 co-transfection ([2]; FIG. 1A): further reduction
Aβ1-42 generation with GPR3 co-transfection ([2]; FIG. 1B): further reduction
β-arrestin 2 recruitment to GPR3 (chemiluminescent signal) [3]: clear increase
